Test results as given in patent US8790883B2, “Methods of identifying NF-κB inhibitors” (priority 2003, dated 2014).
Ends that are not written are not given here. Peptide text beside a SMILES is read from it. * marks the point of attachment. BODIPYFLEthylmaleimide = Cc1cc(C)n2c1C=C1C=CC(CCC(=O)NCCN3C(=O)CC(*)C3=O)=[N+]1[B-]2(F)F; BODIPY = not defined here

Key:
[1] = Cytotoxicity of NLM-DR derived peptides (MTS, FACS, microscope), Table 2
[2] = system: LPS-induced NF-κB activation; test: More stringent NF-κB inhibition assay, second procedure: peptide internalization, washing, 24 h growth, then LPS; type: cell-based, murine; conditions: 10 μM peptide
Description: Left panels show a helical wheel diagram of CC2 (A) and LZ (B) peptides. The view is from the top the molecule. The (a) through (g) positions, which are an essential feature of coiled coil sequence (Vinson, 2002, Mol. Cell. Biol.) represent sequential positions in each peptide sequence. The first (a) and fourth (d) positions that are generally occupied by hydrophobic amino acids constitute the hydrophobic core for parallel as well as antiparallel-coiled coils. Mutations that were introduced in (a) positions of the CC2 variant (BODIPY-Ant-CC2 (Mu); shown as residues 6-40 of SEQ ID NO:3, with glycine mutations corresponding to residues 6-40 of SEQ ID NO:5) or in (d) positions of the LZ variant (BODIPY-Ant-(Mu) are shown. In the right panels, 70Z3-C3 cells were incubated for 2 hours in the absence (control) or in the presence of 10 μM of cell permeable wild type (BODIPY-Ant-CC2 (WT)) or mutant (BODIPY-Ant-CC2 (Mu)) CC2 peptides (A) or wild type (BODIPY-Ant-LZ (WT)) or mutant (BODIPY-Ant-(Mu)) LZ peptides (B). The cells were then extensively washed to remove the excess peptide which had not been internalized and the cells were then diluted three times and allowed to grow for 24 hours before treatment for 5 hours with (+) or without LPS (−). NF-κB activity was measured using the β-galactosidase assay. Error bars represent the standard deviation of two independent experiments.
(A) Sequence alignment of the NEMO-derived LZ (residues 301-336 of SEQ ID NO: 12) and the GCN4 peptides (residues 23-55 of SEQ ID NO:8). Both coiled-coil motifs were aligned using clustalX. Identical and similar amino acid residues (shaded) are indicated by (!) or (*), respectively. (B) Overview and helical wheel diagram of the GCN4 coiled-coil (top view). The amino-acid sequence of GCN4 is shown with its corresponding [a-g] positions and residues that differ from the corresponding NEMO-derived LZ sequence are boxed according to their degree of conservation. Identical (open square) and similar residues (open triangle) are indicated. […] NF-κB activity was measured using the b-galactosidase assay. […]

[3] = system: LPS-induced NF-κB activation; test: NF-κB inhibition assay, first procedure: LPS-induced NF-κB dependent β-galactosidase reporter in 70Z/3-C3 cells; type: cell-based, murine; conditions: peptide 2 h, LPS 3 h, 70Z3-C3 cells (FIG. 3D)
Experimental: The resulting cell line, 70Z3-C3, was incubated for 2 hours in the absence or in the presence of 20 μM of antennapedia peptide (Ant), or BODIPY-labeled antennapedia peptide (BODIPY-Ant), or BODIPY-labeled antennapedia peptide coupled to CC2 (BODIPY-Ant-CC2) or LZ (BODIPY-Ant-LZ) peptides, After peptide internalization, cells were treated for 5 hours with LPS (3 μg/ml, (+) in left panel) or untreated (right panel and (−) in left panel) and the NF-κB activity was measured by β-galactosidase assay. Error bars represent the standard deviation of three separate experiments. (B) Concentration dependence of inhibition of LPS-induced NF-κB activation by BODIPY-Ant-CC2 peptide (left panel) or BODIPY-Ant-LZ peptide (right panel). Cells were treated as in (A) but with different concentration of peptide as indicated. The potential of each peptide to inhibit LPS-induced NF-κB activation was measured by determining the IC50 value that correspond to 50% inhibition of LPS-induced NF-κB activation as compared to the control (no peptide) (C). (D) Effect of the N-fusion sequence of antennapedia on the inhibition of NF-κB activation. Control (no peptide) or CC2, or LZ peptides, with (BODIPY-ANT-CC2, BODIPY-ANT-LZ) or without the antennapedia sequence at the N-terminus (CC2, LZ) were incubated for 2 hours with 70Z3-C3 cells followed with (+) or without (−) the LPS-treatment for 3 hours. NF-κB activity was then measured by β-galactosidase assay.
In a first procedure 2.2×10^5 70Z/3-C3 cells in 220 μl of RPMI 1640 supplemented with 10% fetal calf serum (FCS) and 50 μM β-mercaptoethanol were placed in a 96-well plate and incubated with various concentrations of peptide (0 to 20 μM) at 37° C. in 5% CO2 incubator. After two hours an equal portion (100 μl) of each cell sample transferred in two wells containing each 10^5 cells. One aliquot of cells was then treated for 5 hours with lipopolysaccharides from Salmonella abortus (Sigma) at 0.5 μg/ml final concentration, and the other one left-treated. After 5 hours, cells were centrifuged at 400×g for 5 min at room temperature and the cell pellets were washed three times with cold PBS (250 μl) by centrifugation. Cells were then lysed in the lysis buffer (25 mM tris-phosphate buffer at pH 7.8 containing 8 mM magnesium chloride, 1 mM dithioerythreitol, 1% Triton X-100, 15% glycerol and a protease inhibitor mixture (Roche)), and samples were centrifuged at 4° C. for 20 min to clarify the lysate. The supernatant was then kept on ice, and 30 μl was then assayed to measure the β-galactosidase activity with a plate luminometer (Berthold) using the GALACTON-STAR™ as chemiluminescent substrate (BD Biosciences Clontech, Bronstein et al., 1989). Background of reaction was measured by mixing for 1 hour 30 μl of lysis buffer with the reaction buffer (196 μl) and the GALACTON-STAR™ substrate (4 μl) provided by BD Biosciences. In a second procedure and a more stringent assay, 70Z/3-C3 cells (2.2×105 in 220 μl medium) were centrifuged at 400×g at room temperature after peptide internalization for 2 hours, and cell pellets were washed three times with 200 μl of PBS by centrifugation. Cells were then diluted three times with complete medium, and allowed to grow for at least 24 hours. The following steps are identical to the first procedure.
To analyze the inhibition potential of LPS-induced NF-κB activation by cell permeable BODIPY-Ant-CC2 and BODIPY-Ant-LZ peptides, the present inventors stably transfected the murine pre-B 70Z3 cell line with p12XlacZ-kB, which bears the β-galactosidase reporter gene under the control of the NF-κB transcription factor.

[4] = Analytical gel filtration, oligomeric states of peptides; type: physicochemical; conditions: 10 μM, Superdex 75, buffer with 0.1 mM DDM
Experimental: All peptides were loaded at a 10 μM concentration on a superdex 75 HR10/30 column equilibrated in a buffer containing 0.1 mM DDM to improve recovery (see “Materials and methods”). Chromatographic profiles of the CC2 mutant (dashed line) and the CC2 wild type (solid line) fused (BODIPY-Ant-CC2 (WT), BODIPY-Ant-CC2 (Mu), or not fused to the antennapedia sequence (CC2 (WT), CC2 (Mu)) are shown in left panels, and elution profiles of the LZ mutant (dashed line) and the wild type (solid line) fused (BODIPY-Ant-LZ (WT), BODIPY-Ant-LZ (Mu), or not fused to the antennapedia sequence (LZ (WT), LZ (Mu)) are represented in right panels. Elution volumes of globular protein markers are indicated by arrows: Oval, ovalbumin (43 kDa); Chym, chymotrypsinogene A (25 kDa); Ribo, Ribonuclease (13.4 kDa) and Apro, aprotinin (6.5 kDa).
The oligomeric states of peptides were determined by filtration as described in Traincard et al., 2003. In brief, 500 μl samples were loaded on a SUPERDEX™ 75 HR 10/30 column equilibrated in 50 mM Tris-HCl pH 8.0 containing 200 mM NaCl and 0.1 mM DDM, at a constant flow rate of 0.4 ml/min. The presence of the DDM detergent was added in the equilibrium buffer to minimize the adsorption in the column and to increase the peptide recovery. The column was calibrated in the same equilibrium buffer with blue dextran 2000 (void volume), dithioerythritol (total volume), bovine serum albumin (67 kDa, Rs=35.2 Å), ovalbumine (43 kDa, Rs=27.5 Å), chymotrypsinogen A (25 kDa, Rs=21.1 Å), ribonuclease A (13.7 kDa, Rs=16.4 Å), cytochrome C (12.4 kDa, Rs=17.7 Å) and aprotinin (6.5 KDa, Rs=13.5 Å).

[5] = Circular dichroism studies of helix stability; type: physicochemical
Description: From circular dichroism studies (CD), it appears that CC2 and LZ peptides adopt a helicoidal structure, depending on their concentration. […] RMN and Rayon X Diffraction studies have confirmed the structure of CC2.

Compound | Cellular uptake relative efficiency (FACS) (70Z/3-C3 cells) | Cytotoxicity Cell morphology FACS [1] | Cytotoxicity Cell morphology Microscope [1] | other results
CC[C@H](C)[C@H](NC(=O)[C@H](CC(=O)O)NC(=O)[C@H](C)NC(=O)[C@H](CCC(N)=O)NC(=O)[C@H](C)NC(=O)[C@H](CCCCN)NC(=O)[C@H](CC(C)C)NC(=O)[C@H](CCCCN)NC(=O)[C@H](CCCCN)NC(=O)[C@H](Cc1c[nH]c2ccccc12)NC(=O)[C@H](CCCCN)NC(=O)[C@H](CCSC)NC(=O)[C@H](CCCNC(=N)N)NC(=O)[C@H](CCCNC(=N)N)NC(=O)[C@H](CC(N)=O)NC(=O)[C@H](CCC(N)=O)NC(=O)[C@H](Cc1ccccc1)NC(=O)[C@H](Cc1c[nH]c2ccccc12)NC(=O)[C@@H](NC(=O)[C@H](CCCCN)NC(=O)[C@@H](NC(=O)[C@H](CCC(N)=O)NC(=O)[C@H](CCCNC(=N)N)NC(=O)[C@H](CSC1CC(=O)N(CCNC(=O)CCC2=[N+]3C(=Cc4c(C)cc(C)n4[B-]3(F)F)C=C2)C1=O)NC(C)=O)[C@@H](C)CC)[C@@H](C)CC)C(=O)N[C@@H](Cc1ccc(O)cc1)C(=O)N[C@@H](CCCCN)C(=O)N[C@@H](C)C(=O)N[C@@H](CCCNC(=N)N)C(=O)N[C@@H](Cc1ccccc1)C(=O)N[C@@H](CCC(N)=O)C(=O)N[C@@H](C)C(=O)N[C@@H](CCC(=O)O)C(=O)N[C@@H](CCCNC(=N)N)C(=O)N[C@@H](Cc1c[nH]cn1)C(=O)N[C@@H](C)C(=O)N[C@@H](CCCNC(=N)N)C(=O)N[C@@H](CCC(=O)O)C(=O)N[C@@H](CCCCN)C(N)=O (stereo partly drawn) [BODIPY-Ant-NLM-DR] (Ac-C(BODIPYFLEthylmaleimide)RQIKIWFQNRRMKWKKLKAQADIYKARFQAERHAREK-NH2) | + | – | – | –
CC[C@H](C)[C@H](NC(=O)[C@H](CC(=O)O)NC(=O)[C@H](C)NC(=O)[C@H](CCC(N)=O)NC(=O)[C@H](C)NC(=O)[C@H](CCCCN)NC(=O)[C@H](CC(C)C)NC(=O)[C@H](CCCNC(=N)N)NC(=O)[C@H](CCCNC(=N)N)NC(=O)[C@H](CCCNC(=N)N)NC(=O)[C@H](CCCNC(=N)N)NC(=O)[C@H](CCCNC(=N)N)NC(=O)[C@H](CCCNC(=N)N)NC(=O)[C@H](CCCNC(=N)N)NC(=O)[C@H](CSC1CC(=O)N(CCNC(=O)CCC2=[N+]3C(=Cc4c(C)cc(C)n4[B-]3(F)F)C=C2)C1=O)NC(C)=O)C(=O)N[C@@H](Cc1ccc(O)cc1)C(=O)N[C@@H](CCCCN)C(=O)N[C@@H](C)C(=O)N[C@@H](CCCNC(=N)N)C(=O)N[C@@H](Cc1ccccc1)C(=O)N[C@@H](CCC(N)=O)C(=O)N[C@@H](C)C(=O)N[C@@H](CCC(=O)O)C(=O)N[C@@H](CCCNC(=N)N)C(=O)N[C@@H](Cc1c[nH]cn1)C(=O)N[C@@H](C)C(=O)N[C@@H](CCCNC(=N)N)C(=O)N[C@@H](CCC(=O)O)C(=O)N[C@@H](CCCCN)C(N)=O (stereo partly drawn) [BODIPY-R7-NLM-DR] (Ac-C(BODIPYFLEthylmaleimide)RRRRRRRLKAQADIYKARFQAERHAREK-NH2) | ++++ | no | no | –
CC[C@H](C)[C@H](NC(=O)[C@H](CC(=O)O)NC(=O)[C@H](C)NC(=O)[C@H](CCC(N)=O)NC(=O)[C@H](C)NC(=O)[C@H](CCCCN)NC(=O)[C@H](CC(C)C)NC(=O)[C@H](CCCNC(=N)N)NC(=O)[C@H](CCCNC(=N)N)NC(=O)[C@H](CCCNC(=N)N)NC(=O)[C@H](CCCNC(=N)N)NC(=O)[C@H](CCCNC(=N)N)NC(=O)[C@H](CCCNC(=N)N)NC(=O)[C@H](CCCNC(=N)N)NC(=O)[C@H](CCCNC(=N)N)NC(=O)[C@H](CCCNC(=N)N)NC(=O)[C@H](CSC1CC(=O)N(CCNC(=O)CCC2=[N+]3C(=Cc4c(C)cc(C)n4[B-]3(F)F)C=C2)C1=O)NC(C)=O)C(=O)N[C@@H](Cc1ccc(O)cc1)C(=O)N[C@@H](CCCCN)C(=O)N[C@@H](C)C(=O)N[C@@H](CCCNC(=N)N)C(=O)N[C@@H](Cc1ccccc1)C(=O)N[C@@H](CCC(N)=O)C(=O)N[C@@H](C)C(=O)N[C@@H](CCC(=O)O)C(=O)N[C@@H](CCCNC(=N)N)C(=O)N[C@@H](Cc1c[nH]cn1)C(=O)N[C@@H](C)C(=O)N[C@@H](CCCNC(=N)N)C(=O)N[C@@H](CCC(=O)O)C(=O)N[C@@H](CCCCN)C(N)=O (stereo partly drawn) [BODIPY-R9-NLM-DR] (Ac-C(BODIPYFLEthylmaleimide)RRRRRRRRRLKAQADIYKARFQAERHAREK-NH2) | ++ | no | no | Cytotoxicity MTS Assay ([1]; MTS cell proliferation assay (Promega)): no
B-CRQIKIWFQNRRMKWKKSKGMQLEDLRQQGQQAEEAGVAKQELGDKLKEEAEQHKIV (C(BODIPY)RQIKIWFQNRRMKWKKSKGMQLEDLRQQGQQAEEAGVAKQELGDKLKEEAEQHKIV-NH2; not fully specified (N-terminus); printed as B-CRQIKIWFQNRRMKWKKSKGMQLEDLRQQGQQAEEAGVAKQELGDKLKEEAEQHKIV; reading uncertain) [BODIPY-Ant-CC2 (Mu)] | – | – | – | Effect on LPS-induced NF-κB activation [2]: did not affect the NF-κB activation
SKGMQLEDLRQQLQQAEEALVAKQELIDKLKEEAEQHKIV [CC2 (WT)] | – | – | – | LPS-induced NF-κB activation, peptides not fused to antennapedia [3]: same level of activation as the control; Oligomeric state by gel filtration [4]: trimer; Helix stability by circular dichroism [5]: helix more stable than LZ
